We go through 4 compounds from patent US5750782A, “Nitroaniline derivatives and their use as anti-tumour agents” (priority 1996, dated 1998).

Like-named read-outs stand apart in the source and are kept apart here. Bounds are passed on as bounds.

For orientation: IC50 means the concentration at which inhibition is half-maximal. Higher therefore signals lower potency.

In data set [1] the test system is bacterial nitroreductase enzymes. Particulars: PCT/GB92/01947; cited from earlier work.
The next data set deals with other tumours. Particulars: cited from earlier work.
Another data set relates to EC.1.6.99.2. The settings on record: Walker cell enzyme; cited from earlier work.
A further data set concerns Walker tumour cells. Particulars: in vivo or in vitro; cited from earlier work.
Data set [2] has as its system V79 cells. The experiment in a line: Survival of V79 cells in the presence of the E. coli nitroreductase. Particulars: hamster, 2 h.
Method: (§3) The nitroreductase concentration was 2 μg/ml and NADH was used as a co-factor. The initial cell density was 2×10^5 /mL.
The subject of another data set is MAWI Cells. The experiment in a line: Survival of Mawi cells in the presence of the E. coli nitroreductase: A5B7 F(ab)2 conjugate. The data set is classed as cell-based. The settings on record: 2 h, 37° C. How it is done: (§1) The conjugate concentration was 81 μg/ml (euivalent to 5.2 μg/ml nitroreductase) and NADII was used as a co-factor. […] No attempt was made to remove unbound conjugate.

The test system of data set [3] is V79 cells. The experiment in a line: Survival of V79 cells in the presence of the B. amyloliquifaciens nitroreductase. The data set is classed as cell-based. Particulars: 2 h, 37° C.
Method: The effect of SN23862 on the survival of V79 cells in the preence of the B. amyloliquifaciens nitroreductase. All treatments were for 2 hours at 37° C. and the cells were then plated out for their resulting colony forming ability. […] The initial cell density was 2×10^5 /mL.
In data set [4] the test system is V79 cells. The experiment in a line: Survival of V79 cells in the presence of the E. coli nitroreductase: A5B7 F(ab)2 conjugate. The data set is classed as cell-based. The settings on record: 2 h, 37° C. How it is done:
as §1

The target in data set [5] is T1, B. amyloliquifaciens nitroreductase (Bacillus amyloliquefaciens, UniProt Q8VSR5).
T1 sequence (Q8VSR5 1-174): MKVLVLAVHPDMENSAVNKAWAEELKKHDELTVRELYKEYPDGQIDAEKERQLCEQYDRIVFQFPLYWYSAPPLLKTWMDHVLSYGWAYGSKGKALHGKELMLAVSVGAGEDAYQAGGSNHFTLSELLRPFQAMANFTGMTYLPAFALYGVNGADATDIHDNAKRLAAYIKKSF
The experiment in a line: Drug reduction by the B. amyloliquifaciens nitroreductase. The data set is classed as biochemical. Particulars: 120 min. As to the method: The nitroreductase concentration was 7.45 μg/ml and NADII was ised as a co-factor.

The test system of data set [6] is bacterial nitroreductase enzymes. The experiment in a line: Reductive activation by bacterial nitroreductase enzymes. The data set is classed as biochemical, Escherichia coli and Bacillus amyloliquifaciens. The settings on record: Examples 1 to 3.
The test system of the next data set is UV4 cells. The experiment in a line: Clonogenic assay, UV4 cells (CT10), aerobic and hypoxic. The data set is classed as cell-based. An excerpt:
The product (in μM-hr) of the drug concentration times the exposure time to reduce cell survival to 10% of control values in the clonogenic assay.
Ratio of CT10 values after exposure of UV4 cells as detailed above under either aerobic (air) or hypoxic (N2) conditions (=aerobic CT10 /hypoxic CT10).

A further data set deals with UV4. The experiment in a line: Growth inhibition (IC50), UV4 cells, aerobic. The data set is classed as cell-based. The settings on record: air, 18 h exposure. As to the method: (§2) Growth inhibition studies were performed as described in detail elsewhere (W.R. Wilson, R.F. Anderson and W.A Denny. J Med. Chem., 1989, 32, 23; G.J. Finlay, B.C. Baguley and W.R. Wilson. Anal Biochem., 1984, 139, 172.), using 200 viable AA8 or 300 viable UV4 cells plus 5000 lethally-irradiated AA8 feeder cells per well in 96-well tissue culture dishes. AA8 and UV4 cells were maintained in logarithmic-phase growth in […] tissue culture flasks with subculture twice weekly by trypsinization. The growth medium was antibiotic-free α-MEM with 10% v/v heat-inactivated ([…], 40 min) fetal calf serum. Doubling times were approximately 14h for AA8 and 15h for UV4 cells.

The test system of the next data set is AA8 and UV4 cell lines. The experiment in a line: Ratio of IC50 values against AA8 and UV4 cell lines (HFair). Particulars: 18 h exposure. The data set is classed as cell-based. How it is done: as §2
Ratio of IC50 values for a compound after exposure as detailed above against AA8 and UV4 cell lines (HF=IC50 (AA8)/IC50 (UV4)).

For data set [7], the system named is V79 cells. Particulars: 2 h, 37° C.
Method: as §3
The target of data set [8] is T2, E. coli nitroreductase: A5B7 F(ab)2 conjugate (Escherichia coli, UniProt P38489).
T2 construct: A5B7 F(ab)2 antibody fragment (conjugate)
T2 sequence (P38489 1-217): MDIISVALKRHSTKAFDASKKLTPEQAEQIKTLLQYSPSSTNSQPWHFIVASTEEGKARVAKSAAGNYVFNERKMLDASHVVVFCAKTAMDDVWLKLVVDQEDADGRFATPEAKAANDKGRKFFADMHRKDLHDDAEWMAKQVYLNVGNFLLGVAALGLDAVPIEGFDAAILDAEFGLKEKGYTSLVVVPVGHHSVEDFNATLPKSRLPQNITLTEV
The experiment in a line: Drug reduction by the E. coli nitroreductase: A5B7 F(ab)2 conjugate. The data set is classed as biochemical. Particulars: 120 min. As to the method:
as §1

The subject of the next data set is UV4 cell line. The experiment in a line: Ratio of IC50 values against UV4 cell line in presence and absence of E. coli nitroreductase enzyme NTR-2. The data set is classed as cell-based. Particulars: air, ratio of IC50 in presence and absence of E. coli nitroreductase NTR-2, 1080 min. As to the method:
as §2
Ratio of IC50 values for a compound after exposure as detailed above against the UV4 cell line in the presence and absence of the E. coli nitroreductase enzyme NTR-2.

The next data set deals with T3, E. coli nitroreductase (Escherichia coli, UniProt P38489).
T3 sequence (P38489 1-217): T2 sequence (P38489 1-217)
The experiment in a line: Drug reduction by the E. coli nitroreductase. The data set is classed as biochemical. The settings on record: 120 min.

In a further data set the test system is AA8. The experiment in a line: Growth inhibition (IC50), AA8 cells, aerobic. The data set is classed as cell-based. Particulars: air, 18 h exposure. As to the method:
as §2

Another data set deals with AA8 cells. The experiment in a line: Radiosensitisation of hypoxic AA8 cells, gamma irradiation. The data set is classed as cell-based. How it is done:
The radiosensitising efficiency of compound 1 has been assessed in stirred suspensions of AA8 cells under hypoxie conditions using gamma irradiation (cobalt 60) at a dose rate of 2.2 Gy/min at 37° C. Drug and cells were mixed under hypoxic conditions 30 min before irradiation.

For data set [9] the following is noted: product of CB 1954 reduction by Walker cell enzyme; cited from earlier work.
The mark [10] stands for this setting: +CG (81 μg/ml) + SN23862 + 500 μM NADH.

In the case of `NC(=O)c1cc(N2CC2)c([N+](=O)[O-])cc1[N+](=O)[O-]` [CB 1954, 5-(aziridin-1-yl)-2,4-dinitrobenzaride], the “conversion into an active anti-tumour agent by bacterial nitroreductases” value in data set [1] is “capable of converting CB 1954 into an active anti-tumour agents”. Moreover, the “activity against other tumours” value in the data set on other tumours is “virtually inactive”. In addition, in the data set with EC.1.6.99.2, the “reduction of the 4-nitro group to the corresponding hydroxylamine” value is listed as “ability to reduce the 4-nitro group of CB 1954”. Moreover, in the data set with Walker tumour cells, the “activity against the Walker tumour cells” value was “considerable activity”.

Regarding `NC(=O)C1=CN([C@@H]2O[C@H](COP(=O)(O)OP(=O)(O)OC[C@H]3O[C@@H](n4cnc5c(N)ncnc54)[C@H](O)[C@@H]3O)[C@@H](O)[C@H]2O)C=CC1` [NADH, reference compound], the “% SURVIVAL” value in the data set with V79 cells [2] came to 100%; with V79 cells [3] (+500 μM NADH alone), 120%. Also, in the data set with MAWI Cells (+500 μM NADH alone), the “% SURVIVAL MAWI Cells” value came out at 104.6%. In the data set on V79 cells [4] (+500 μM NADH alone), the “% SURVIVAL V79 Cells” value is listed as 94.6%.

In the case of `NC(=O)c1cc(N(CCCl)CCCl)c([N+](=O)[O-])cc1[N+](=O)[O-]` [Compound 1, 5-[N,N-bis(2-chloroethyl)amino]-2,4-diritrobenzamide], the “% DRUG REDUCTION” value in data set [5] (+50 μM SN23862) is given as < 1.0%; in data set [5] (+BA + 50 μM SN23862), < 1.0%; in data set [5] (+BA + SN23862 + 500 μM NADH), > 95%; in data set [5] (+NADH + SN23862), < 1.0%; in [8] (+50 μM SN23862), < 1.0%; in data set [8] (+CG + 50 μM SN23862), < 1.0%. Moreover, the “% DRUG REDUCTION” value in data set [8] (+CG + SN23862 + 500 μM NADH) is given as > 99%; in data set [8] (+NADH + SN23862) it was < 1.0%; on E. coli nitroreductase (+50 μM SN23862) it was < 1.0%; at E. coli nitroreductase (+NADH + SN23862), < 1.0%; at E. coli nitroreductase (+NR + 50 μM SN23862) it was < 1.0%; at E. coli nitroreductase (+NR + SN23862 + 500 μM NADH), 95%. For the same compound, the “reductive activation by bacterial nitroreductase enzymes” value in data set [6] is listed as “reductively activated by bacterial nitroreductase enzymes”. The “CT10 ratio (air/N2)” value in the data set with UV4 cells (UV4 cells, aerobic CT10/hypoxic CT10) came to 58. For the same compound, the “CT10 (UV4)” value in the data set with UV4 cells (air, concentration x time to reduce UV4 cell survival to 10% of control) is reported as 2925 μM-h. Also, the hypoxia-selective cytotoxicity entry in the data set on UV4 cells (conclusion in words) was “hypoxia-selective cytotoxin”. The concentration for half-maximal inhibition (IC50) came out at 109 µM in the data set with UV4 and 468 µM in the data set on AA8. In the data set on AA8 and UV4 cell lines, the “HF (air) = IC50 (AA8)/IC50 (UV4)” value is 6.8. Also, the “% SURVIVAL” value in the data set on V79 cells [7] (+50 μM SN23862) worked out at 100%; with V79 cells [7] (+NADH + SN23862), 100%; with V79 cells [7] (+NR (2 μg/ml) + 50 μM SN23862), 99%; with V79 cells [7] (+NR (2 μg/ml) + SN23862 + 500 μM NADH), 0.007%; in the data set with V79 cells [3] (+50 μM SN23862) it was 110%; in the data set with V79 cells [3] (+BA (7.45 μg/ml) + 50 μM SN23862), 110%. Besides, the “% SURVIVAL” value in the data set on V79 cells [3] (+BA (7.45 μg/ml) + SN23862 + 500 μM NADH) is recorded as 6.0%; with V79 cells [3] (+NADH + SN23862), 115%. Also, the “% SURVIVAL MAWI Cells” value in the data set on MAWI Cells (+50 μM SN23862) amounted to 90.9%; in the data set with MAWI Cells (+CG (81 μg/ml) + 50 μM SN23862), 94.6%; with MAWI Cells (setting [10]), 0.014%; in the data set on MAWI Cells (+NADH + SN23862), 93.1%. The “% SURVIVAL V79 Cells” value with V79 cells [4] (+50 μM SN23862) was determined as 94.3%; with V79 cells [4] (+CG (81 μg/ml) + 50 μM SN23862) it was 73.5%; in the data set on V79 cells [4] (setting [10]), 0.003%; in the data set on V79 cells [4] (+NADH + SN23862) it was 80.4%. In the data set with UV4 cell line, the “HF (NR-2)” value is recorded as 73.5. In addition, the “drug toxicity at this extent of sensitisation” value with AA8 cells (at C1.6, hypoxic AA8 cells, FIG. 1) is recorded as “absence of drug toxicity”. The “Radiosensitisation of hypoxic cells” value with AA8 cells (hypoxic AA8 cells, FIG. 1) was “Radiosensitisation of hypoxic cells was observed”. Further, the “C1.6 (concentration for an enhancement ratio of 1.6)” value in the data set with AA8 cells (hypoxic, 10% survival, cobalt 60, 2.2 Gy/min, 37° C, drug 30 min before irradiation) is on record as “approximately 100 μM”.

Take `NC(=O)c1cc(N2CC2)c(NO)cc1[N+](=O)[O-]` [5-(aziridin-1-yl)-2-nitro-4-hydroxylamino-benzamide]: the anti-tumour activity result in [9] is on record as “active anti-tumour agent”.
